# Reference: PMC4664558 (Clinical Pharmacology and Therapeutics, 2015)
# “And” between values parts separate entries of the source, which are not always exact repeats. Equal values may be shown once. Read-outs that look alike come from different tables or passages of the source.
# Tests used:
# [1] = INPC cohort study: risk of myopathy after prescription of drug pairs; conditions: adjusted for age and sex; for Risk2 (myopathy risk for drug 2): drug 2 only
# [2] = Peak plasma / gut / hepatic inlet concentration at the highest clinical dose; type: in vivo, human; conditions: for Maximal hepatic inlet concentration ([I]inlet,max): Cmax + (ka x Dose x FaFg/Qh); for Inhibitor concentration ([I]): [I] equal to Cmax
# OATP1B2 = target: T1, OATP1B2 (Rattus norvegicus, UniProt Q9QZX8); assay: Inhibition of E217βDG active uptake in cryopreserved rat hepatocytes; conditions: for Predicted R value: OATP1B1/1B3-based DDI, 1 + [I]inlet,max/Ki, Ki approximated by IC50; for inhibition at 3 min, 100 μM: rat, cryopreserved rat hepatocytes, probe [3H] β-estradiol 17-β-D-glucuronide (E217βDG), 1 μM, 0.1 μCi
# T1 sequence (Q9QZX8 1-687): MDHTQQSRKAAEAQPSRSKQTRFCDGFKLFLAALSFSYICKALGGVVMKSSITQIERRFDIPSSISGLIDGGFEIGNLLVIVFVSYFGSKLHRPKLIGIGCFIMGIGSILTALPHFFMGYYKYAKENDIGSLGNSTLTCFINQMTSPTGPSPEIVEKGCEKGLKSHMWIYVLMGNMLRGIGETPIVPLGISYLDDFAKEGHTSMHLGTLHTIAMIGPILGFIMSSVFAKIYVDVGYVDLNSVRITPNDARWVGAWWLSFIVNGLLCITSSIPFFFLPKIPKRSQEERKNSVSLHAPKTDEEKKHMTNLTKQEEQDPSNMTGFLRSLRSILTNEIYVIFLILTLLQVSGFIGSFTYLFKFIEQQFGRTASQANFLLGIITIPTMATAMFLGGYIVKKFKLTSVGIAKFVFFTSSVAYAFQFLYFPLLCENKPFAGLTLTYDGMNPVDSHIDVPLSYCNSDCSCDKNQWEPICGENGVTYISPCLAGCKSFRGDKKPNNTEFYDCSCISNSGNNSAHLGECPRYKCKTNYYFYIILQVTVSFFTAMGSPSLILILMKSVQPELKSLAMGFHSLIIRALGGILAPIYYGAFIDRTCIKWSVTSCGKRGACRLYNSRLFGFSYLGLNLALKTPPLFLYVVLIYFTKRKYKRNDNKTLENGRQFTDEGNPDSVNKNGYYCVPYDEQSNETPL
# rat L6 myotubes = assay: Myotoxicity in rat L6 myotubes; type: cell-based; conditions: 10 μM for 5 days, compared to DMSO control
# [3] = peak total plasma concentration at the highest clinical dose; cited from earlier work
# CYP2D6 [4] = target: T2, CYP2D6 (Homo sapiens, UniProt P10635); assay: biochemical
# T2 sequence (P10635 whole entry): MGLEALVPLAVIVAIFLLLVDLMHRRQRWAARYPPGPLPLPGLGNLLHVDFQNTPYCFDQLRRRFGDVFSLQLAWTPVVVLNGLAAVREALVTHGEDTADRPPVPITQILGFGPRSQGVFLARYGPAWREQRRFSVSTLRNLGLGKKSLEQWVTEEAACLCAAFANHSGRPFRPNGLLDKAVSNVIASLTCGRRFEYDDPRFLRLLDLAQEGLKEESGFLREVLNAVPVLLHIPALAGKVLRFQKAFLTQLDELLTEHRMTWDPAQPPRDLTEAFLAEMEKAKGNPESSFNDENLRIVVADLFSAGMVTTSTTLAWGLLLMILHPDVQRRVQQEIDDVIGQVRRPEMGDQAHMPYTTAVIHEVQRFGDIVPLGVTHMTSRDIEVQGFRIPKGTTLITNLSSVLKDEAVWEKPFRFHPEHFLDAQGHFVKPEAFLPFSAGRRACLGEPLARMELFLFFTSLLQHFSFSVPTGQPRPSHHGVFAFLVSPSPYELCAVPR
# CYP2C9 [5] = target: T3, CYP2C9 (Homo sapiens, UniProt P11712); assay: biochemical; conditions: pathway CYP2C9
# T3 sequence (P11712 whole entry): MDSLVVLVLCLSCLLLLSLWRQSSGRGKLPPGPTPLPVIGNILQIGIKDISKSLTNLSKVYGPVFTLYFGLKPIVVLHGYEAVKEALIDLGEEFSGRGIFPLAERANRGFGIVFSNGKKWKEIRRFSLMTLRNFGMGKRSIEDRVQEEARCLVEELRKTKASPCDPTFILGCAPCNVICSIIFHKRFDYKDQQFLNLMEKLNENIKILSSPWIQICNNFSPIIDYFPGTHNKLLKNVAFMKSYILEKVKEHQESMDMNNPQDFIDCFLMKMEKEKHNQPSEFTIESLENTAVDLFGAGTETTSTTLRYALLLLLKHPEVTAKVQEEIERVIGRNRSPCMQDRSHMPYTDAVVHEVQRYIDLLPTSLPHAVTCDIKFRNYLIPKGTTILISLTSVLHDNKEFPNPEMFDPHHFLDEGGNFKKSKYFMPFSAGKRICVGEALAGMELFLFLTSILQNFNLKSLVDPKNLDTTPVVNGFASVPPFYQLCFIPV
# CYP2C9 [6] = target: T3, CYP2C9
# CYP2D6 [7] = target: T2, CYP2D6
# CYP2C19 = CYP2C19 (Homo sapiens, UniProt P33261); assay: Fluorometric CYP inhibition assay; type: biochemical; conditions: for Ki: pathway CYP2C19
# CYP2C19, sequence (P33261 whole entry): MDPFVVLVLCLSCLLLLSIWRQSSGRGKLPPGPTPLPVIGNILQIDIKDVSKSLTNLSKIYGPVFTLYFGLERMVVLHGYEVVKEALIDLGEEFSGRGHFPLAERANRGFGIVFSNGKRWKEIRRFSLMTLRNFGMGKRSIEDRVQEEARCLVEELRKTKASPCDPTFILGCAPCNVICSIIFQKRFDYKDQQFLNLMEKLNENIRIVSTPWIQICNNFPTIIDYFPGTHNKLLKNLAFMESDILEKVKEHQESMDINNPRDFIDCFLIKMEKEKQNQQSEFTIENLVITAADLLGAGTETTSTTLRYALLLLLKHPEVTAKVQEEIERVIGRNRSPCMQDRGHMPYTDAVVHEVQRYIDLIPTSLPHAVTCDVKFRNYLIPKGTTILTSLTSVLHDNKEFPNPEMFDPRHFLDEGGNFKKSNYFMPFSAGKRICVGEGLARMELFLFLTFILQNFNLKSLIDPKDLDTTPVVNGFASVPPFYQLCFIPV
# CYP3A4 = CYP3A4 (Homo sapiens, UniProt P08684)
# CYP3A4, sequence (P08684 whole entry): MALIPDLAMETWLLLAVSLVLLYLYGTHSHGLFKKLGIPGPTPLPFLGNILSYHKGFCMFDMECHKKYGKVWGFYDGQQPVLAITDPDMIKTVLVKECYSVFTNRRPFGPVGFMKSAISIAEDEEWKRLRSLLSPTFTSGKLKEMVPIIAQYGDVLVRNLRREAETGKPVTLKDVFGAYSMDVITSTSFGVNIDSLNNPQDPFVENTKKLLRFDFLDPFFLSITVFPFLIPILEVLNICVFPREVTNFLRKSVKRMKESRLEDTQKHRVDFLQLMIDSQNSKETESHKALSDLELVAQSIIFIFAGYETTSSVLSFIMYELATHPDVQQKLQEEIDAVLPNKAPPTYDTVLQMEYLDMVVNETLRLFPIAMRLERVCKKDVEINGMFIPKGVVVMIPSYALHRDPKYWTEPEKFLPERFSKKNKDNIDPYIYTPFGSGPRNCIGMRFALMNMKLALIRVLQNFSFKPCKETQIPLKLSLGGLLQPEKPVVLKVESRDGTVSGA
# [8] = cited from earlier work
# [9] = Dissociation constant (Ki), pathway CYP2D6
# [10] = Unbound dissociation constant (Ki,u), pathway CYP2D6, Ki * fu,inc
# [11] = Unbound dissociation constant (Ki,u), Ki * fu,inc
Structure (SMILES),Risk2 (myopathy risk for drug 2) [1],"Maximal hepatic inlet concentration ([I]inlet,max) [2] [µM]","inhibition at 3 min, 100 μM (OATP1B2) [%]",myotube death (rat L6 myotubes) [%],Inhibitor concentration ([I]) [2] [µM],Peak plasma concentration (Cmax) [3],further results
Cc1nnc2n1-c1ccc(Cl)cc1C(c1ccccc1)=NC2 [Alprazolam],0.029,0.981,54.5 ± 0.3,,,,IC50 (OATP1B2): 99.5 µM; Predicted R value (OATP1B2): 1.01
Clc1ccc2c(c1)CCc1cccnc1C2=C1CCNCC1 [Desloratadine],,,,73.3 ± 1.1,,,
CCOC(=O)N1CCC(=C2c3ccc(Cl)cc3CCc3cccnc32)CC1 [Loratadine],,,,,0.011,,Risk1 (myopathy risk for drug 1) ([1]; drug 1 only): 0.022 and 0.020
COc1ccc2[nH]c([S+]([O-])Cc3ncc(C)c(OC)c3C)nc2c1 (stereo not drawn) [Omeprazole],0.059,19.586,60.1 ± 4.8,,,,IC50 (OATP1B2): 84.3 µM; Predicted R value (OATP1B2): 1.23
CC(CN1c2ccccc2Sc2ccccc21)N(C)C (stereo not drawn) [Promethazine],,,17.7 ± 7.7,,0.068,19.3 (36) ng/ml,"Ki (CYP2D6 [4]; Dissociation constant (Ki)): 0.25 µM; Ki (CYP2D6 [4]; Unbound dissociation constant (Ki,u)): 0.22 µM"
CCCN(CCC)CCc1cccc2c1CC(=O)N2 [Ropinirole],0.018,,23.7 ± 2.7,,0.103,26.9 (37) ng/ml,Ki (CYP2D6 [4]; [9]): 0.85 µM; Ki (CYP2D6 [4]; [10]): 0.71 µM
CCC(C)(C)C(=O)O[C@H]1C[C@@H](C)C=C2C=C[C@H](C)[C@H](CC[C@@H](O)C[C@@H](O)CC(=O)O)[C@H]21 [Simvastatin acid],,12.274,,33.0 ± 2.1,,,
CCC(C)(C)C(=O)O[C@H]1C[C@@H](C)C=C2C=C[C@H](C)[C@H](CC[C@@H]3C[C@@H](O)CC(=O)O3)[C@H]21 [Simvastatin],0.033,,,73.7 ± 2.6,,,
[H]/N=C(/NCCCCC)N/N=C/c1c[nH]c2ccc(OC)cc12 [Tegaserod],0.020,,24.6 ± 15.3,97.9 ± 0.4,0.009,2.7 (39) ng/ml,Ki (CYP2C9 [5]; Dissociation constant (Ki)): 11.4 µM; Ki (CYP2C9 [5]; [11]): 10.5 µM; Predicted R-values (CYP2C9 [6]): 1.00; Predicted R-values (CYP2D6 [7]): 1.02; Ki (CYP2D6 [4]; [9]): 0.51 µM; Ki (CYP2D6 [4]; [10]): 0.47 µM; Predicted R-values (CYP2C19): 1.00; Ki (CYP2C19; Dissociation constant (Ki)): 9.2 µM; Ki (CYP2C19; [11]): 8.48 µM; Predicted R-values (CYP3A4): 1.17
COCc1c(C(C)C)nc(C(C)C)c(/C=C/[C@@H](O)C[C@@H](O)CC(=O)O)c1-c1ccc(F)cc1 [cerivastatin],,,,,,,risk of rhabdomyolysis relative to other statins [8]: 10 fold; risk of rhabdomyolysis relative to other statins ([8]; with concurrent use of gemfibrozil): 50 fold
